The results in this text go back to patent US11400102B2, “Treatment for bacterial infections with salicylic acid analogs” (priority 2019, dated 2022).

In test [1] the test system is yersiniabactin. Description: 13C labeled salicylic acid incorporation into Ybt in culture. In kind it is cell-based. The note with it: FIG. 12 middle panel.
Test [2] concerns yersiniabactin. Description: 13C labeled salicylic acid in infection model, labeled Ybt in mouse urine. The following applies: FIG. 12 right panel. In kind it is in vivo.

With `O=C(O)[13c]1[13cH][13cH][13cH][13cH][13c]1O` [^13C labeled salicylic acid], the “incorporation of labeled compound into Ybt during culture” value in the test on yersiniabactin [1] is recorded as “incorporated”. Also, the “labeled compound in mouse urine by mass spectrometry” value in the test with yersiniabactin [2] is given as “detectable”.
